Values quoted from earlier work, collected in patent US20060024344A1 (priority 2004, published 2006).
Entries after “also recorded” stand apart in the source; their conditions may differ.

How the values were obtained:
Settings in all cases: in vivo
[1] = system: fish in schoold
[2] = system: rainbow trout, blugill and channel catfish
[3] = system: human tongue
[4] = system: human skin
[5] = system: sharks
[6] = system: sharks; remark: listed apart in the source
[7] = system: captive lemon sharks
[8] = system: sharks; remark: listed apart in the source

| Molecule | observed effect on fish [1] | efficiency to repel sharks [6] | also measured |
| --- | --- | --- | --- |
| C=CCN=C=S [allyl isothiocyanate] | strongly stimulated the entire body | – | – |
| COc1ccc(O)c(C(C)(C)C)c1 [butylated hydroxyanisole] | – | – | toxicity for fishes compared with zebra mussel [2]: substantially greater |
| COc1cc(CNC(=O)CCCC/C=C/C(C)C)ccc1O [capsaicin, 8-methyl-n-vanillyl-6-nonenamide] | – | – | concentration at which detected in humans [3]: 0.1 µg/mL; concentration provoking a sensation of perceptible warmth on tongue [3]: 1 µg/mL; concentration provoking a sensation of persistent burning on tongue [3]: 10 µg/mL; skin reaction (flare, irritation) [4]: no flare and irritation; skin temperature below which burning pain and hyperaesthesia cease completely [4]: below 28 deg C.; concentration producing perceptible warmth at subcutaneous and intramuscular level ([4]; sc): 10 µg/mL; concentration producing persistent burning at subcutaneous and intramuscular level ([4]; sc): 100 µg/mL |
| CCS [ethyl mercaptan] | induced tetanic paralysis | – | – |
| CC1(C)[C@@H]2CC[C@@]1(C)[C@H](OC(=O)CSC#N)C2 [isobornyl thiocyanoacetate] | induced tetanic paralysis | – | – |
| CC(=O)OC[C@H](C)CCC[C@@H](C)[C@H]1CCC2C3C(C[C@H](O)[C@@]21C)[C@@]1(C)CC[C@@H](O)C[C@H]1C[C@H]3O[C@@H]1O[C@H](CO)[C@H](O)[C@H](O)[C@H]1O (stereo partly drawn) [mosesin-4] | – | – | shark repellent activity [5]: shows shark repellent activity |
| O=C(CBr)c1ccccc1 [phenacyl bromide] | seriously irritated the eyes and impaired vision | – | – |
| O=C(CCl)c1ccccc1 [phenacyl chloride] | seriously irritated the eyes and impaired vision | – | – |
| Oc1ccccc1 [phenol] | strongly stimulated the entire body | – | – |
| O=S([O-])O.[Na+] [sodium bisulfite] | respiratory impairment | – | – |
| CCCCCCCCCCOS(=O)(=O)[O-].[Na+] [sodium decyl sulfate] | – | revealed efficiency to repel sharks | – |
| CCCCCCCCCCCCOS(=O)(=O)[O-].[Na+] [sodium dodecyl sulfate] | – | revealed efficiency to repel sharks | shark repellent effect [7]: strongly repelled sharks |
| CCCCCCCCCCCCCCCCCCOS(=O)(=O)[O-].[Na+] [sodium octadecyl sulfate] | – | revealed efficiency to repel sharks | – |
| CCCCCCCCOS(=O)(=O)[O-].[Na+] [sodium octyl sulfate] | – | revealed efficiency to repel sharks | – |
| CCCCCCCCCCCCCCOS(=O)(=O)[O-].[Na+] [sodium tetradecyl sulfate] | – | revealed efficiency to repel sharks | – |
| O=C(OC[C@H]1O[C@@H](OC(=O)c2cc(O)c(O)c(OC(=O)c3cc(O)c(O)c(O)c3)c2)[C@H](OC(=O)c2cc(O)c(O)c(OC(=O)c3cc(O)c(O)c(O)c3)c2)[C@@H](OC(=O)c2cc(O)c(O)c(OC(=O)c3cc(O)c(O)c(O)c3)c2)[C@@H]1OC(=O)c1cc(O)c(O)c(OC(=O)c2cc(O)c(O)c(O)c2)c1)c1cc(O)c(O)c(OC(=O)c2cc(O)c(O)c(O)c2)c1 [tannic acid] | – | – | toxicity for fishes compared with zebra mussel [2]: substantially greater |
| N#CSCCCCC(Cl)(Cl)Cl [thiocyanic acid 5,5,5-trichloro amyl ester] | flaccid paralysis; also recorded: respiratory impairment | – | – |
| copper acetate | – | – | effectivity as a shark deterrent [8]: reduced effectivity as a deterrent |
| magnesium dodecyl sulfate | – | revealed efficiency to repel sharks | – |
| sodium dodecyl ether sulfate | – | revealed efficiency to repel sharks | – |
